Active and inactive are the calls of the source. No cut-off for these calls is given here.
Key:
[1] = target: T1, Leukotriene A-4 hydrolase (Homo sapiens, UniProt P09960); test: Activation of human recombinant LTA4H aminopeptidase activity assessed as alanine-p-nitroanilide (Ala-pNA) hydrolysis by LCMS analysis
T1 sequence (P09960 whole entry): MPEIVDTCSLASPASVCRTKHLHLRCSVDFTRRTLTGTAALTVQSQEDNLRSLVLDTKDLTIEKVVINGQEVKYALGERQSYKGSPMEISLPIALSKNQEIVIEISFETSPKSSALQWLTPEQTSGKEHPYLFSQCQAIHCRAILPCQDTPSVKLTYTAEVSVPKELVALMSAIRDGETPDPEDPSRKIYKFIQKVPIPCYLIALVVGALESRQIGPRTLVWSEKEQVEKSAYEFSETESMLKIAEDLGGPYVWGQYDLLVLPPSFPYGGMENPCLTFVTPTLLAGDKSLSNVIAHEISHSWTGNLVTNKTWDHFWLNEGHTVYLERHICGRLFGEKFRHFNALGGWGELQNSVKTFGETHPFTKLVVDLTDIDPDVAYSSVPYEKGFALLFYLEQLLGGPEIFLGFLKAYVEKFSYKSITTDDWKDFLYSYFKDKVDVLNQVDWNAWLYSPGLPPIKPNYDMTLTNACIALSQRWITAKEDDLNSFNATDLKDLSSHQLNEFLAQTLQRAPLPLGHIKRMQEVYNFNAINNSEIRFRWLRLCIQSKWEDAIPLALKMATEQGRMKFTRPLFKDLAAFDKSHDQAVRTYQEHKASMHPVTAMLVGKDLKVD

[2] = target: T2, Leukotriene A-4 hydrolase (Homo sapiens) (UniProt P09960); test: Activation of human recombinant LTA4H aminopeptidase activity assessed as alanine-p-nitroanilide (Ala-pNA) hydrolysis at 10 uM measured within 2 mins time window by LCMS analysis
T2 sequence (whole entry): T1 sequence (P09960 whole entry)

[3] = Metabolic stability in mouse liver microsomes assessed as depletion measured after 30 mins; assay type: ADME, Microsome; settings: read-out: Drug degradation
Mus musculus [4] = organism: Mus musculus; test: Anti-inflammatory activity against 1000 CFU of Klebsiella pneumonia ATCC 43816 intranasal infected C57BL/6 mouse pneumonia model assessed as mouse survival treated a day after bacterial exposure measured upto 14 days; assay type: functional, organism-based; settings: time <= 14.0 day
Mus musculus [5] = organism: Mus musculus; test: Reduction in LTB4 level in 1000 CFU of Klebsiella pneumonia ATCC 43816 intranasal infected C57BL/6 mouse pneumonia model assessed as LTB4 level in bronchoalveolar lavage fluid (BALF) ELISA based by Epoxide hydrolase assay; assay type: functional
[6] = target: T1, Leukotriene A-4 hydrolase; test: Inhibition of human recombinant LTA4H aminopeptidase activity assessed as alanine-p-nitroanilide (Ala-pNA) hydrolysis by LCMS analysis

SMILES: Nc1nc(-c2ccc(Cc3ccccc3)cc2)cs1
- EC50 [1]: 240 nM

SMILES: Nc1cc[nH]n1
- Activity [2]: inactive
- metabolised at 0.5 h [3]: 18%
- Activity (Mus musculus [4]): inactive
- Activity (Mus musculus [5]): Active

SMILES: Nc1cc(-c2ccc(Oc3ccc(Cl)cc3)cc2)n[nH]1
- EC50 [1]: 120 nM

SMILES: Clc1ccc(Oc2ccc(N3CCNCC3)cc2)cc1
- IC50 [6]: 3330 nM

SMILES: C[C@]12CC[C@H]3[C@@H](CCC4=CC(=O)CC[C@@]43C)[C@@H]1CC[C@@H]2O [TESTOSTERONE]
- metabolised at 0.5 h [3]: 98%
